In paper PMC4646021, “Streptococcus pneumoniae NanC” (The Journal of Biological Chemistry, 2015):
pKd: −log10 of the molar value.

How the values were obtained:
NanC (scheme A) = biological target: T1, NanC (scheme A) (Streptococcus pneumoniae, UniProt A0A0H2UQE4); assay: X-ray crystal structure, soak; format: binding
T1 construct: gene SP_1326; residues 28-740, signal peptide removed (CBM plus catalytic domain); pET21b, E. coli Rosetta (DE3), nickel column; 82 kDa

NanC CBM = biological target: T2, NanC CBM (Streptococcus pneumoniae, UniProt A0A0H2UQE4); assay: isothermal titration calorimetry; format: binding; settings: 20 mM Tris pH 8, 50 mM NaCl; stoichiometry fixed 1:1; CBM site
T2 construct: gene SP_1326; purified by scheme A
T2 sequence (A0A0H2UQE4 entry or part of it): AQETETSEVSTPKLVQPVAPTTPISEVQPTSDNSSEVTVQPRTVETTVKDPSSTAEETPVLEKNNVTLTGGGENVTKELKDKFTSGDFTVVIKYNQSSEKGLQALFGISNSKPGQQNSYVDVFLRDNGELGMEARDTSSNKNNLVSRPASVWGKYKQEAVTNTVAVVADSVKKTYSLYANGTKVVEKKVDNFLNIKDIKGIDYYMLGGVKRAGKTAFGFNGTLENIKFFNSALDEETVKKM

T1 sequence (A0A0H2UQE4 entry or part of it): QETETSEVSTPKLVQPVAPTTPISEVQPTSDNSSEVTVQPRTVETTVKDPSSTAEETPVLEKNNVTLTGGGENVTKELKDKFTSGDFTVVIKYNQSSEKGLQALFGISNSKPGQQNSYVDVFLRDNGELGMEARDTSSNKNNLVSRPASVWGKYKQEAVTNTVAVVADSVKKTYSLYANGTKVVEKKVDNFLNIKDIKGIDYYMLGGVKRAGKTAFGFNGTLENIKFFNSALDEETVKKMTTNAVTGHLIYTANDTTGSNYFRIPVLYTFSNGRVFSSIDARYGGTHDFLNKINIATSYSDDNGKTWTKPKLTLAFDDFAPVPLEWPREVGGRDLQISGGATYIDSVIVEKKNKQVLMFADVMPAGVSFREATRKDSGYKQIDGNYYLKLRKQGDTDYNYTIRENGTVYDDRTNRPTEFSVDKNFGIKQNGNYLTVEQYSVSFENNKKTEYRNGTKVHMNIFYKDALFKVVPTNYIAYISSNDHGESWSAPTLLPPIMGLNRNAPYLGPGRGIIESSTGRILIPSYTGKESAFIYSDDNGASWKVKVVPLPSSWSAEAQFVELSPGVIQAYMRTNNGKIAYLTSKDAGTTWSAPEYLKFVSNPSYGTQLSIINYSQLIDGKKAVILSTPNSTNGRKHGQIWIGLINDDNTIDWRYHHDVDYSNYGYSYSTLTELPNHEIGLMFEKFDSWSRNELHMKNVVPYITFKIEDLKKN

Structure (SMILES)	pKd (NanC CBM)	other results
CC(=O)N[C@H]1[C@H]([C@H](O)[C@H](O)CO)OC(F)(C(=O)O)C(F)[C@@H]1O (stereo partly shown) [2,3F-Neu5Ac]	–	X-ray crystal structure, soak (NanC (scheme A); covalent, active site Tyr-695 adduct 3F-β-Neu5Ac, 5 mM, 45 min soak, intact compound also in CBM site): 3F-β-Neu5Ac was covalently bound to Tyr-695 in an unstrained
CC(=O)N[C@H]1[C@H]([C@H](O)[C@H](O)CO)O[C@@](O[C@H]2[C@@H](O)[C@@H](CO)O[C@@H](O[C@H]3[C@H](O)[C@@H](O)C(O)O[C@@H]3CO)[C@@H]2O)(C(=O)O)C[C@@H]1O (stereo partly shown) [3′SL]	2.83	–
CC(=O)N[C@H]1[C@H]([C@H](O)[C@H](O)CO)O[C@@](OC[C@H]2O[C@@H](O[C@H]3[C@H](O)[C@@H](O)C(O)O[C@@H]3CO)[C@H](O)[C@@H](O)[C@H]2O)(C(=O)O)C[C@@H]1O (stereo partly shown) [6′SL]	2.80	–
CCC(CC)O[C@@H]1C=C(C(=O)O)C[C@H](N)[C@H]1NC(C)=O [OC]	–	X-ray crystal structure, soak (NanC (scheme A); catalytic active site, 20 mM, 5 min soak): OC binds in the NanC active site
